The record followed here is patent publication US20040224937A1, “Use of protein kinase C inhibitor for suppressing sustained slow postsynaptic excitation (SSPE)” (Pfizer Inc, priority 2003, published 2004).

“Also recorded” adds a separate entry of the source. Some results are limits rather than exact numbers.

Test [1] concerns myenteric intrinsic primary afferent neurons (IPANs; AH neurons). In words: Sustained slow postsynaptic excitation (SSPE) evoked by 1 Hz, 4 min stimulation of synaptic inputs; intracellular recording in ileum myenteric plexus. It counts as cell-based, guinea pig. The following applies: for effect on the excitability increase associated with SSPE: stimulation of presynaptic inputs 1 Hz for 4 min. The text has this: (§1) Guinea pigs from the inbred Hartley strain colony of the Department of Anatomy and Cell Biology at the University of Melbourne were used. All efforts were made to minimize animal suffering and numbers of animals used. The experiments conformed to National Health and Medical Research Council of Australia guidelines and were approved by the University of Melbourne Animal Experimentation Ethics Committee. Guinea pigs of either sex (180-250 g) were stunned by a blow to the head and killed by severing the carotid arteries and spinal cord, and segments of ileum were removed into physiological saline. The segments were placed in a recording dish lined with silicone elastomer, opened along the line of the mesenteric attachment and pinned flat under moderate tension with the mucosa uppermost. During dissection, the tissue was immersed in physiological saline (composition in mM: NaCl 118, KCl 4.8, NaHCO3 25, NaH2PO4 1.0, MgSO4 1.2, glucose 11.1, CaCl2 2.5) and kept at room temperature. The mucosa, submucosa and circular smooth muscle were removed to expose the myenteric plexus. The recording dish (volume 4 mL) was then placed on the stage of an inverted microscope and continuously superfused (4 mL/min) with physiological saline that had been preheated to yield a bath temperature of 35-37° C. The superperfusion solution was bubbled with 95% O2 and 5% CO2 and contained nicardipine (3 μM) and hyoscine (1 μM) to inhibit muscle movement. The tissue was equilibrated with the perfusate for 1-2 h before recording was commenced.
(§2) Individual neurons were impaled using conventional intracellular microelectrodes (resistance, […]) filled with 1 M KCl. Signals were amplified using an AxoClamp 2B amplifier (Axon instruments, Foster City, Calif., USA), digitized at 5-20 kHz and stored using PC-based data acquisition software (Axoscope 8.0). Measurements were made after allowing the impalements to stabilize for at least 15 min without applying intracellular holding current. Neurons were identified as AH cells based on the presence of a hump on the falling phase of the action potential and, in most cells, a late after-hyperpolarising potential following the action potential. Stimuli were applied to inter-ganglionic connectives at a frequency of 1 Hz, via a fine tungsten stimulating electrode (tip diameter<50 μm) that was placed on a circumferentially located internodal strand adjacent to the ganglion. Pulses were 0.1 ms in duration and <0.3 mA in intensity.
(§3) Neuronal excitability was assessed, by injecting 500 ms depolarizing current pulses (0.05-0.2 nA). The depolarizing pulses were delivered at intervals of 40 s. The mean excitability was evaluated by averaging the numbers of action potentials evoked by the 6 depolarizing current pulses for periods of 4 min, prior to the 1 Hz stimulus, around the peak of the response, and for a period of 4 min after the end of the stimulus. To determine input resistance (Rin), small hyperpolarizing current pulses (duration 100 ms; intensity<0.02 nA) were injected before each depolarizing pulse. The membrane potential (MP) was sampled each 40 s. MP, Rin, and numbers of action potentials in response to depolarizing pulses were determined.

The test system is the same in test [2]. In words: Direct effect of compounds on excitability, membrane potential, input resistance and action potentials of AH neurons (no or before presynaptic stimulation). Format: cell-based, guinea pig.
Text: as §1, §2, §3

With `CN[C@@H]1C[C@H]2O[C@@](C)([C@@H]1OC)n1c3ccccc3c3c4c(c5c6ccccc6n2c5c31)C(=O)NC4` [staurosporine], in test [1] (1 μM, stimulation 1 Hz for 4 min, n=6, P<0.01 vs control), the “decrease of the peak change in excitability during SSPE” value is “about 75%”. Moreover, in test [1] (1 μM), the “effect on the excitability increase associated with SSPE” value is on record as “significantly smaller or no increase in neuronal excitability”. For the same compound, in test [2] (1 μM, about 15-25 min exposure), the “effect on excitability, membrane potential or input resistance before stimulation of presynaptic inputs” value (shortened to “effect on excitability … of presynaptic inputs”) is reported as “did not cause any change”.

As to `O=S(=O)(NCCNC/C=C/c1ccc(Br)cc1)c1cccc2cnccc12` [H89], the “effect on the excitability increase associated with SSPE” value in test [1] (1 μM) is reported as “no effect; also recorded: not changed”. In test [2] (1 μM, about 15-25 min exposure), the “effect on excitability … of presynaptic inputs” value is “no changes”.

Turning to `CCCC(=O)O[C@@H]1[C@@H](C)[C@@]2(O)[C@@H](C=C(CO)C[C@]3(O)C(=O)C(C)=C[C@@H]23)[C@@H]2C(C)(C)[C@]12OC(=O)CCC` [PDBu, phorbol 12, 13 dibutyrate], the “effect on excitability of the neuron” value in test [2] (1 μM, example neuron, FIG. 5A) was “increased the excitability”. Further, the depolarization entry in test [2] (1 μM, example neuron, FIG. 5B) was “about 8 mV”. Further, the “increase of input resistance” value in test [2] (1 μM, example neuron, FIG. 5C) is “about 100 MΩ”. In addition, in test [2] (0.2-1 μM in bath for 5-10 min), the “amplitude of the after-hyperpolarizing potential (AHP) during exposure” value was “decreased” and the “duration of effect beyond washing out of the compound” value is not below 10 min.

For calphostin C, in test [1] (1 μM, added after SSPE had been enhanced), the “reversal of excitability already enhanced by successive stimuli (maintenance of SSPE)” value is recorded as “did not restore excitability to its pre-stimulus level”. For the same compound, the “effect on the excitability increase associated with SSPE” value in test [1] (1 μM) is listed as “blocked”; in test [1] (1 μM, listed as Calphostin C), “substantially reduced”. The “effect on excitability … of presynaptic inputs” value in test [2] (1 μM, about 15-25 min exposure) is “did not affect”.

Turning to `[H]/N=C(/N)SCCCn1cc(C2=C(c3cn(C)c4ccccc34)C(=O)NC2=O)c2ccccc21` [RO31-8220, 3-[1-[3-(Amidinothio)propyl-1H-indol-3-yl]-3-(1-methyl-1H-indol-3-yl)maleimide Bisindolylmaleimide IX, methanesulfonate], the “effect on the excitability increase associated with SSPE” value in test [1] (1 μM) is recorded as “not reduced”; in test [1] (3.3 μM, n=6, P<0.1), “reduced the degree to which the excitability increased; also recorded: reduction in the increase of AH neuron excitability”. For the same compound, the “effect on antidromic action potential generation” value in test [2] (3.3 μM) was “did not cause a depression”. In addition, in test [2] (3.3 μM, 15 min exposure), the “effect on excitability … of presynaptic inputs” value was “without affecting”. In addition, the “effect on antidromic action potentials” value in test [2] (10 μM, restored by increasing stimulus strength) is on record as “sometimes suppressed”.
